Assay results: patent US20240139162A1, “Benzophenanthridine Alkaloids and Their Methods of Use” (Chengdu Anticancer Bioscience, LTD., priority 2019, published 2024)
“Also recorded” adds a separate entry of the source. Read-outs that look alike come from different tables or passages of the source.

Columns and labels:
[1] = system: all tested cell lines (RPE, Rat1A and human cancer cell lines); experiment: MTT assay, IC50 across all of the cell lines tested; assay type: cell-based
[2] = system: Rat1A cell lines (Rat1A C, Rat1A MYC, Rat1A E2F1, Rat1A E2F3); experiment: MTT assay, Rat1A cell lines expressing oncogenes; assay type: cell-based; conditions: Rat1A cell lines compared to Rat1A C (FIG. 12)
Method: (§1) Cells were split, plated in appropriate culture media and allowed to adhere. After 18 hours, corynoline and acetylcorynoline were added to a cell line selected from below. At 72 h or 96 h, MTT was added and at 75 h or 99 h, the A570 nm was recorded. The concentration ranged from 0.02 μM to 40 μM.
(§2) The following Rat1A cell lines were used in these studies: Rat1 A C, Rat1A MYC, Rat1A E2F1, and Rat1A E2F3. The cell line was then engineered as control (C), to overexpress the MYC oncogene (Rat1A-MYC), to overexpress the E2F1 oncogene (Rat1A-E2F1), or to overexpress the E2F3 oncogene (Rat1A-E2F3).

human cancer cell lines = experiment: MTT assay, human cancer cell lines; assay type: cell-based; conditions: with the exception of T98G (FIG. 13)
Method: as §1, with “μM. Taxol was used as a positive control, which has a known IC50 value of less than 0.02 μM in all tested cell lines.” for “μM.”
The following human cancer cell lines, representing a breadth of cancer subtypes, were used in these studies: Hela, C32, NCI-H23, HCT116 p53-/-, HCT116 wild type, MDA-MB-175IV, MDA-MB-231, MDA-MB-435, MCF-7, A431, H460, TUWI, CaoV-3, T98G, and HTB135.

RPE-MBH cells = experiment: IC50 in RPE-MBH cells (Table 1); assay type: cell-based, human; conditions: Homo sapiens, 72 h, RPE-MBH, treatment 72 h; read-out: IC50
Method: as §1
The following RPE cell lines were used in these studies: RPE NEO, RPE MBH, RPE MBC, RPE MA, RPE MP, RPE MI, and RPE MYC Nick. This RPE series were derived from human retinal pigment epithelium and then stably transfected with an hTERT expression construct for immortalization. The resulting cell line was then engineered to overexpress the MYC oncogene (RPE-MYC) or a Neomycin selection marker gene (RPE-NEO). In RPE-MYC cells, a variety of other oncogenes such as Myr-AKT, BCL2, ID1 and PI3K^E45k were further introduced individually to generate the cell lines RPE MA, RPE MBC, RPE MI, RPE MP, respectively. As a control, H2BGFP was introduced into RPE-MYC cells to generate RPE MBH.
(§3) The effect of the compounds chelidonine and protopine on cell division was assessed similarly to corynoline and acetylcorynoline above. As described in Example 6 above, as cells enter and become arrested in mitosis, they detach from the plate surface and appear as rounded cells with a smooth surface membrane. RPE-MBC cells (ectopically expressing oncogenes MYC and Bcl2) were treated with DMSO, chelidonine and protopine, and compared against controls Michael's ketone (MK) and taxol.

Rat1A cells = experiment: IC50 in Rat1A cells (Table 2); assay type: cell-based; conditions: 72 h, Rat1A, treatment 72 h; read-out: IC50
Method: as §1, §2, §3

3T3 MEF cells = experiment: IC50 in 3T3 MEF cells (Table 2); assay type: cell-based; conditions: Mus musculus, MEF, 72 h, 3T3 MEF, treatment 72 h; read-out: IC50
Method: as §1, §3

RPE-MBC cells = experiment: Mitotic arrest (cell round-up, phospho-Histone H3) and polyploidy (DAPI) assay; assay type: cell-based, human
Method: For screening for bioactive fractions, cells were cultured in 96-well plates, and exposed to crude extracts, partially purified fractions or pure compounds at the concentrations indicated in the figure legends. Exposure was for 24 or 48 hours before analysis of cells for either an arrest in mitosis using an inverted microscope or for a change in DNA content after 4′,6′-diamidino-2-phenylindole (DAPI) staining by fluorescence microscopy.
Cells were cultured on coverslips in a 6-well plate, fixed with 4% paraformaldehyde and then permeabilized with 0.3% Triton X-100 in PBS. Primary antibody was detected with Texas-Red-conjugated secondary antibodies that were purchased from Jackson ImmunoResearch. After immunostaining, cells were mounted on microscope slides with 4′,6′-diamidino-2-phenylindole (DAPI)-containing Vectashield mounting solution (Vector Laboratories) for detection of fluorescence with an EVOS FL fluorescence microscope (ThermoFisher).
Cellular “round-up” was used as a surrogate marker for mitotic arrest and could easily be assayed using an inverted tissue culture microscope. […] Mitotic arrest was judged by cell round-up observed under an inverted tissue culture microscope 24 hours after exposing cells to the library.
As cells enter and become arrested in mitosis, they detach from the plate surface and appear as rounded cells with smooth surface membrane, distinct from detached cells that are undergoing programmed cell death. Simple visual screening method was used to assay thousands of extracts. […] To identify bioactive components that are able to interfere with mitosis, 3 kg of Corydalis longicalcarata rhizome were recollected and performed bioactivity-guided extraction, isolation, and purification. The air dried and powdered material was extracted with 70% ethanol assisted by exposure to ultrasonic waves.

RPE MBC cells [3] = experiment: Spindle pole assembly by β-tubulin / Histone H3ser10P immunofluorescence; assay type: cell-based, human
Method: Microtubule assembly, specifically spindle pole assembly, was altered by treatment with acetylcorynoline. RPE MBC cells were treated with acetylcorynoline and Histone H3 Serine 10 Phosphorylation (Histone H3ser10p, shown in FIG. 4 and FIG. 5 in red), β-tubulin (green) and DNA (blue) was analyzed by immunofluorescence microscopy. Histone H3ser10P was used to determine the cells that were in early mitosis (e.g., prometaphase or metaphase). β-tubulin was used to examine microtubule localization and spindle assembly within the cells.
Similarly to corynoline and acetylcorynoline above, it was determined that microtubule assembly, specifically spindle pole assembly, was altered by treatment with chelidonine.

RPE MBC cells [4] = experiment: Mitotic kinetochore analysis with CREST antibody; assay type: cell-based, human
Method: Following treatment with acetylcorynoline, RPE MBC cells were prepared for immunofluorescence analysis with CREST serum (staining shown in FIG. 6 and FIG. 7 in red).

cells = experiment: Progression through mitosis by time-lapse microscopy; assay type: cell-based
From the text: Time lapse microscopy was used to compare progression through mitosis for cells treated with acetylcorynoline and the DMSO control group, beginning at prophase.

CC(=O)O[C@H]1Cc2cc3c(cc2[C@H]2N(C)Cc4c(ccc5c4OCO5)[C@@]12C)OCO3 [Acetylcorynoline, (5bR,6S,12bR)-5b,6,7,12b,13,14-Hexahydro-5b,13-dimethyl-[1,3]benzodioxolo[5,6-c]-1,3-dioxolo[4,5-i]phenanthridin-6-ol 6-acetate]
IC50 ([1]; Homo sapiens, across all of the cell lines tested (FIG. 9), MTT at 72 h or 96 h, read-out: IC50): 1 to 31 µM
IC50 ([1]; oncogene-expressing RPE cell lines and human cell lines (FIG. 2, FIG. 3), read-out: IC50, majority of values): 1 to 31 µM
change of IC50 after overexpression of oncogenes [2]: all declined when compared to Rat1 A C
IC50 compared with the other compound (human cancer cell lines): higher than those for corynoline
IC50 (RPE-MBH cells): 12.6 µM
IC50 (Rat1A cells): 27.4 µM
IC50 (3T3 MEF cells): 23 µM
polyploidy compared to DMSO control (RPE-MBC cells; 10 μM and 20 μM, 48 hours): polyploidy was induced
mitotic arrest (RPE-MBC cells; 24 hours after treatment): can arrest mitosis within 24 hours of treatment; also recorded: Nearly all cells entered and arrested in mitosis
polyploidy (DAPI staining) (RPE-MBC cells; 48 hours after treatment): induce polyploidy at 48 hours; also recorded: induced polyploidy; also recorded: Polyploidy was observed; also recorded: demonstrates polyploidy
minimal effective concentration for mitotic arrest and polyploidy relative to corynoline (RPE-MBC cells; FIG. 15): 2 fold
mitotic arrest and polyploidy, dependence on concentration (RPE-MBC cells; FIG. 15): concentration-dependent
persistence of the arrest of cells in mitosis (RPE-MBC cells; within 48-hour treatment): transient
cells in prometaphase (Histone H3ser10P staining) (RPE MBC cells [3]; 6 hours of treatment): Numerous mitotic cells accumulated in prometaphase; also recorded: high numbers of cells arresting in prometaphase
spindle formation (β-tubulin staining) (RPE MBC cells [3]; 6 hours of treatment): monopolar spindles were formed; also recorded: abnormal spindle polarization in mitosis
spindle formation (β-tubulin staining) (RPE MBC cells [3]; 24 hours of treatment): multipolar spindles were formed; also recorded: multipolar spindle formation in mitosis
kinetochore arrangement (CREST staining) (RPE MBC cells [4]): kinetochore arrangement was disturbed
cytofission (cells; time lapse): prevented cytofission
initiation of cytokinesis (cells; time lapse): does not affect the initiation of cytokinesis
time spent in early mitosis compared to a control cell (cells; time lapse beginning at prophase): three-times longer
